Patent US9840500B2, “Compounds as dual inhibitors of histone methyltransferases and DNA methyltransferases” (FUNDACIÓN PARA LA INVESTIGACIÓN MÉDICA APLICADA, priority 2014, dated 2017)
Where two headings read alike, the source gives them in different places.

Columns and labels:
LAL-CUN-2 = assay: Cell proliferation assay, LAL-CUN-2 (ALL); type: cell-based
Experimental: (§1) Cell proliferation was analyzed after 48 hours of in vitro treatment using the CellTiter 96 Aqueous One Solution Cell Proliferation Assay (Promega, Madison, Wis.). This is a colorimetric method for determining the number of viable cells in proliferation.
(§2) For the assay, suspension cells were cultured by triplicate at a density of 1×10^6 cells/ml in 96-well plates (100.000 cells/well, 100 μl/well), except for OCILY-3 and OCILY-10 cell lines which were cultured at a density of 0.5×10^6 cells/ml (50.000 cells/well, 100 μl/well) and for HepG2, Hep3B and PLC/PRF/5 cell ines which were cultured at a density of 3000 cells/well, 100 μl/well). Adherent cells were obtained from 80-90% confluent flasks and 100 μl of cells were seeded at a density of 5000 cells/well in 96-well plates by triplicate. Before addition of the compounds, adherent cells were allowed to attach to the bottom of the wells for 12 hours. In all cases, only the 60 inner wells were used to avoid any border effects.
(§3) After 48 hours of treatment, plates with suspension cells were centrifuged at 800 g for 10 minutes and medium was removed. The plates with adherent cells were flicked to remove medium. Then, cells were incubated with 100 ul/well of medium and 20 ul/well of CellTiter 96 Aqueous One Solution reagent. After 1-3 hours of incubation at 37° C., absorbance was measured at 490 nm in a 96-well plate reader. The background absorbance was measured in wells with only cell line medium and solution reagent. Data was calculated as a percentage of total absorbance of treated cell/absorbance of non treated cells.

MV411 = assay: Cell proliferation assay, MV411 / MV4-11 (AML); type: cell-based
Experimental: as §1, §2, §3
(§4) Compounds 3-04 and 3-07 were tested against different solid tumour and oncohematological cell lines using the cell proliferation protocol described above.

U266 = assay: Cell proliferation assay, U266 (MM); type: cell-based
Experimental: as §1, §2, §3

OCI-AML-2 = assay: Cell proliferation assay, OCI-AML-2 (AML); type: cell-based
Experimental: as §1, §2, §3, §4

JJN3 = assay: Cell proliferation assay, JJN3 (MM); type: cell-based
Experimental: as §1, §2, §3

CEMO-1 = assay: Cell proliferation assay, CEMO-1 (ALL); type: cell-based, human
Experimental: as §1, §2, §3

HepG2 = assay: Cell proliferation assay, HepG2 (HCC); type: cell-based; conditions: Homo sapiens, 48 hours of treatment, Table 3
Experimental: as §1, §2, §3

OCI-Ly3 = assay: Cell proliferation assay, OCI-Ly3 (ABC-DLBCL); type: cell-based; conditions: Homo sapiens, 48 hours of treatment, Table 3
Experimental: as §1, §2, §3

PLC/PRF/5 = assay: Cell proliferation assay, PLC/PRF/5 (HCC); type: cell-based; conditions: Homo sapiens, 48 hours of treatment, Table 3
Experimental: as §1, §2, §3

Hep3B = assay: Cell proliferation assay, Hep3B (HCC); type: cell-based; conditions: Homo sapiens, 48 hours of treatment, Table 3
Experimental: as §1, §2, §3

human G9a enzyme = target: T1, human G9a enzyme (Homo sapiens, UniProt Q96KQ7); assay: G9a enzyme activity assay (TR-FRET); type: biochemical
T1 sequence (Q96KQ7 1-1210): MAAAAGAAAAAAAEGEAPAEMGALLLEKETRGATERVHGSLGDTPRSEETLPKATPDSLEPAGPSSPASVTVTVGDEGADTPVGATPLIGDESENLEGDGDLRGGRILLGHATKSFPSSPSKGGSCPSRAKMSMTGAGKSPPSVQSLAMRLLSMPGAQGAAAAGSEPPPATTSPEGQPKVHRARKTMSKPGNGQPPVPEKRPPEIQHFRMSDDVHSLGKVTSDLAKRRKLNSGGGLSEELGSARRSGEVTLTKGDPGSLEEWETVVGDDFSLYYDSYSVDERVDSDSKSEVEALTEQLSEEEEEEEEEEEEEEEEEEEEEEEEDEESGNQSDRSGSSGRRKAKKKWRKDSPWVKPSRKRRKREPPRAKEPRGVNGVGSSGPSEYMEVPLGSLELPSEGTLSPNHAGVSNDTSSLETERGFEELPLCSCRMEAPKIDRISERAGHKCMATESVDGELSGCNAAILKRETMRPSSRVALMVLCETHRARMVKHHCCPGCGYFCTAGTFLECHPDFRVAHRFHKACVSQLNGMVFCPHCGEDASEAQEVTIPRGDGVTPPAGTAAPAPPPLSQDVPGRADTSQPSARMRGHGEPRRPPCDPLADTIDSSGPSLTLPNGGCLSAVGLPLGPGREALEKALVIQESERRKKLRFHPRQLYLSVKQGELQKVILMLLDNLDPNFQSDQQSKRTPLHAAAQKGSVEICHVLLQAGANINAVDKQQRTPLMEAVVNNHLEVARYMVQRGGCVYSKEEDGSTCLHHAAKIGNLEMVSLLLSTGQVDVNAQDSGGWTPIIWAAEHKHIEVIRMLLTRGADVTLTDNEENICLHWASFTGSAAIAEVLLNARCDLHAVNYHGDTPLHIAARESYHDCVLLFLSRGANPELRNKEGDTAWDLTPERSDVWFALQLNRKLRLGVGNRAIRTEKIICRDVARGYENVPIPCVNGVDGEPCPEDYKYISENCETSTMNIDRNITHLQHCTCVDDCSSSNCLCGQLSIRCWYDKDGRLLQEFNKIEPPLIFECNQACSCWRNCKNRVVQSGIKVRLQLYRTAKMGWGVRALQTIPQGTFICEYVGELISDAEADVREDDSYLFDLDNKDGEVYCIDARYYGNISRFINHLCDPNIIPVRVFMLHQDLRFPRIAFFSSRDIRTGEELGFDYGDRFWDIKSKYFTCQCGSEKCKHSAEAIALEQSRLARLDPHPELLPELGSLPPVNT
Summary of the method: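 Sf9-expressed human G9a (added as 1 nM solution), 0.5% DMSO final, with streptavidin-XL665 at 16 μM final and europium cryptate donor. After 1 h at room temperature, the 665/620 nm ratio was read against vehicle and no-enzyme controls. IC50 from a 4-parameter inhibition fit.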

OCI-Ly10 = assay: Cell proliferation assay, OCI-Ly10 (ABC-DLBCL); type: cell-based; conditions: Homo sapiens, 48 hours of treatment, Table 3
Experimental: as §1, §2, §3

DNMT1 [1] = target: T2, DNMT1 (Homo sapiens, UniProt P26358); assay: DNMT1 enzyme activity assay (TR-FRET, EPIgeneous methyltransferase assay); type: biochemical
Summary of the method: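 Human DNMT1, added at 1 nM, with 0.5% final DMSO; activity read by TR-FRET detection of the product SAH, where signal falls as SAH rises. The value is the 665/620 nm ratio, and IC50 comes from a 4-parameter inhibition fit.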
Target sequence in this assay (P26358 whole entry): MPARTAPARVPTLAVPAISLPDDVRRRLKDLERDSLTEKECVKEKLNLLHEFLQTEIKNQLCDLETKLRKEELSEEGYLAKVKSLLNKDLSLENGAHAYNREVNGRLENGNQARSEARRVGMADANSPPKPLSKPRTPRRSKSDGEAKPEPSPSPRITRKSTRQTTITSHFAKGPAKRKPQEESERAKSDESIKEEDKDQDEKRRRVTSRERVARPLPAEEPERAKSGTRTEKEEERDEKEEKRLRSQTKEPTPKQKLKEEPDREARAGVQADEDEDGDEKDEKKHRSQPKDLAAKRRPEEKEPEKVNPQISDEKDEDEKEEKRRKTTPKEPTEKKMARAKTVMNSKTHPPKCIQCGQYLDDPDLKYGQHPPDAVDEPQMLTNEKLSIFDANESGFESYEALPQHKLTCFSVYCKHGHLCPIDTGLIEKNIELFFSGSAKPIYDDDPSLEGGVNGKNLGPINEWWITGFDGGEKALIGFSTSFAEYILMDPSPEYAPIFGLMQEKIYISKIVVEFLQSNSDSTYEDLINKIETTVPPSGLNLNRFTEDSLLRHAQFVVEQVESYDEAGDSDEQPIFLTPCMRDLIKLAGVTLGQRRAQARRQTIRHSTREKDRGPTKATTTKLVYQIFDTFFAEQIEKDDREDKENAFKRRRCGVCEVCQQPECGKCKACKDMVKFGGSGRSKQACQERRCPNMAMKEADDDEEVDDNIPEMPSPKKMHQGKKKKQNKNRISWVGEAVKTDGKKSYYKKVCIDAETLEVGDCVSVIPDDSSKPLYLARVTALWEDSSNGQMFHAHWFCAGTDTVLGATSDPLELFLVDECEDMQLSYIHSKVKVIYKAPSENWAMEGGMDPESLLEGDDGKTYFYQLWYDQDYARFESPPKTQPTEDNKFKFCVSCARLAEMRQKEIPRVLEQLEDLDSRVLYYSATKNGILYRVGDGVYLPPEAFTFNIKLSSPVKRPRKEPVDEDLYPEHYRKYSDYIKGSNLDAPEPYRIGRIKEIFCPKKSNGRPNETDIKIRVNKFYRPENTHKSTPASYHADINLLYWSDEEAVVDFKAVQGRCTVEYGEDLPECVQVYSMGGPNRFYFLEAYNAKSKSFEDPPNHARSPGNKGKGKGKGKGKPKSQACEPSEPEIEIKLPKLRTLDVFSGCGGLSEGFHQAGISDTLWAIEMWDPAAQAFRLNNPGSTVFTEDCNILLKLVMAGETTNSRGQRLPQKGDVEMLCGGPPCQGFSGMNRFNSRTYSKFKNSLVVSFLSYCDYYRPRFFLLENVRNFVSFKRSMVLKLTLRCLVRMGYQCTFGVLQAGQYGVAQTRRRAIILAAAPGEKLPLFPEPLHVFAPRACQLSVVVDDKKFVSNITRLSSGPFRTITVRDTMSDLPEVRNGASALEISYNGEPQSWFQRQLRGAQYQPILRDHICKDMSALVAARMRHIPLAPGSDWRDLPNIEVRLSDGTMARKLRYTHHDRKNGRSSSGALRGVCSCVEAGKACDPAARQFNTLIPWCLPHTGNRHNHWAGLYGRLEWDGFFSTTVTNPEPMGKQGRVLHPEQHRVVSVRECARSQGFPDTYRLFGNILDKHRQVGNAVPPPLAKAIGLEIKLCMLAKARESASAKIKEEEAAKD

DNMT3A = DNMT3A (Homo sapiens, UniProt Q9Y6K1); assay: DNMT3A inhibition reported in the literature; type: biochemical; conditions: read-out: IC50 against DNMT3A
Chain of DNMT3A (Q9Y6K1 whole entry, looked up, species assumed): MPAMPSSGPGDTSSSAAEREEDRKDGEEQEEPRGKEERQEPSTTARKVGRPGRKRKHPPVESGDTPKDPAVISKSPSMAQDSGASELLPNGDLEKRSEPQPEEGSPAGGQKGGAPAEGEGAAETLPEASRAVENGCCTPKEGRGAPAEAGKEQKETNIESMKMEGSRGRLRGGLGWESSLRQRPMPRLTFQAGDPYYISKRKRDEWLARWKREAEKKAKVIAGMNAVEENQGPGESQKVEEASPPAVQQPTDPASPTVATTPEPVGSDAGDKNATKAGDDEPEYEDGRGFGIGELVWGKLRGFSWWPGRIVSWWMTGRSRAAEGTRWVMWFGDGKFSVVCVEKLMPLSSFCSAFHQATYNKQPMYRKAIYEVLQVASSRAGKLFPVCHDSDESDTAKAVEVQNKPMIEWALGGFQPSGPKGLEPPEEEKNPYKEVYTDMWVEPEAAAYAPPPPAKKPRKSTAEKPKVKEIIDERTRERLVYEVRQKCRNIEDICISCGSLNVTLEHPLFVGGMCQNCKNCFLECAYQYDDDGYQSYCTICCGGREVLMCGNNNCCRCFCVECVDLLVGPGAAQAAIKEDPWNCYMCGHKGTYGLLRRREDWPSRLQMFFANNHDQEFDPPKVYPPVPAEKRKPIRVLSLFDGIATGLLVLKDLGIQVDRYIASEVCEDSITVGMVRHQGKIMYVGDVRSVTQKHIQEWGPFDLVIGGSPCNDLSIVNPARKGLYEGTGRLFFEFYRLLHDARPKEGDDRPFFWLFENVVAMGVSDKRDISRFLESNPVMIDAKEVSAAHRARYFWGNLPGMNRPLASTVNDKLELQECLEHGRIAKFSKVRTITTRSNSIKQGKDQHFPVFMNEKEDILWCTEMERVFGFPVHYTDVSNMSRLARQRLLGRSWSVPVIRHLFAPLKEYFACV

DNMT1 [2] = target: T2, DNMT1; assay: DNMT1 inhibition reported in the literature; type: biochemical; conditions: read-out: IC50 against DNMT1
Target sequence in this assay (P26358 whole entry, species assumed): as the sequence (P26358 whole entry) above

BJ human fibroblasts [3] = assay: iPSC reprogramming of BJ human fibroblasts with lentiviral vectors (O:S:K:M); type: cell-based; conditions: compound concentration 200 nM
Text: The used reprogramming system consisted in four independent doxycycline inducible lentiviral vectors (FUW-Tet-O based vectors) coding for the human OCT4 (addgene, ref#20726), SOX2 (addgene, ref#20724), KLF4 (addgene, ref#20725) and cMYC (addgene, ref#20723) transcription factors (O:S:K:M) Vesicular Stomatitis Virus G (VSVG)-coated lentiviruses were generated in 293T cells as described previously (Tiscornia et al., Nat Protoc. 2006; 1(1):241-5.). Briefly, 293T cells (ATCC, CRL-3216) were transfected with FUW-TetO lentiviral vectors referred above along with packaging plasmids psPAX2 (addgene, ref#12260) and pMD2.G (addgene, ref#12259) under the same conditions as those disclosed by Tiscornia et al, supra. […]
• Day 2: Second infection of BJ cells (same conditions that first infection). • Day 3: Replate BJ cells in 2×175 cm^2 culture flask in fresh FCM. • Day 4: Incubate 1×175 cm^2 flask with 0.2 μM or 0.1 μM of test compound and the other flask just with FCM. Compound concentrations were selected according to the determined GI50 in BJ human fibroblasts, in order to avoid cytotoxicity. […]
Reprogramming efficiency was quantified four weeks after infection. Presence of ESC-like colonies was detected by alkaline phosphatase (AP) staining using Leukocyte Alkaline Phosphatase Kit (Sigma) according to the manufacturer's protocol.

BJ human fibroblasts [4] = assay: iPSC reprogramming of BJ human fibroblasts with retroviral vectors (O:S); type: cell-based; conditions: compound concentration 200 nM
DNMT1 [5] = target: T2, DNMT1; conditions: reported in the literature (Vedadi 2011; Liu 2013); read-out: IC50 against DNMT1; cited from earlier work
Target sequence in this assay (P26358 whole entry, species assumed): as the sequence (P26358 whole entry) above

[6] = Homo sapiens, MV4-11, Table 5 comparison
[7] = Homo sapiens, U-266, Table 5 comparison
[8] = Homo sapiens, OCI-AML2, Table 5 comparison
[9] = Homo sapiens, JJN-3, Table 5 comparison
[10] = Homo sapiens, ALL, Table 5 comparison

Structure (SMILES) | GI50 (LAL-CUN-2; ALL, Table 5 comparison) [µM] | GI50 (MV411; [6]) [µM] | GI50 (U266; [7]) [µM] | GI50 (OCI-AML-2; [8]) [µM] | GI50 (JJN3; [9]) [µM] | GI50 (CEMO-1; [10]) [µM] | also measured
COc1cc2c(NC3CCN(C(C)C)CC3)nc(C3CCCCC3)nc2cc1OCCCN1CCCC1 [UNC0638, 2-cyclohexyl-N-(1-isopropyl-4-piperidyl)-6-methoxy-7-(3-pyrrolidin-1-ylpropoxy)quinazolin-4-amine, reference compound] | 1 to 10 | ≥ 10 | ≥ 10 | 1 to 10 | ≥ 10 | 1 to 10 | –
COc1cc2c(NC3CCN(C4CC4)CC3)cc(-c3ccc(C)o3)nc2cc1OCCCN1CCCC1 [Compound 3-20] | – | – | – | – | – | – | GI50 (LAL-CUN-2; 48 hours of treatment, Table 3): 1 to 10 µM; GI50 (HepG2): 0.1 to 1 µM; GI50 (OCI-Ly3): 0.1 to 1 µM; GI50 (PLC/PRF/5): 0.1 to 1 µM; GI50 (Hep3B): 0.1 to 1 µM; IC50 (human G9a enzyme): < 0.1 µM; GI50 (OCI-Ly10): 0.1 to 1 µM; IC50 (DNMT1 [1]): 0.1 to 0.5 µM; GI50 (CEMO-1; Homo sapiens, 48 hours of treatment, Table 3): 0.1 to 1 µM
Nc1ncn([C@H]2C[C@H](O)[C@@H](CO)O2)c(=O)n1 [Decitabine, reference compound] | ≥ 10 | – | – | – | – | – | GI50 (MV411; Table 5 comparison): ≥ 10 µM; GI50 (U266; Table 5 comparison): ≥ 10 µM; GI50 (OCI-AML-2; Table 5 comparison): ≥ 10 µM; GI50 (JJN3; Table 5 comparison): ≥ 10 µM; GI50 (CEMO-1; ALL, Table 5 comparison): 0.1 to 1 µM
Nc1ncn([C@@H]2O[C@H](CO)[C@@H](O)[C@H]2O)c(=O)n1 [5-azacytidine, reference compound] | ≥ 10 | 1 to 10 | 1 to 10 | ≥ 10 | ≥ 10 | 1 to 10 | –
COc1cc2nc(N3CCCN(C)CC3)nc(NC3CCN(Cc4ccccc4)CC3)c2cc1OC [BIX01294, N-(1-benzyl-4-piperidyl)-6,7-dimethoxy-2-(4-methyl-1,4-diazepan-1-yl)quinazolin-4-amine] | 1 to 10 | ≥ 10 | ≥ 10 | 1 to 10 | ≥ 10 | 1 to 10 | IC50 (DNMT3A): > 100 µM; IC50 (DNMT1 [2]): > 100 µM; Folding respect to untreated (reprogramming efficiency, AP+ colonies) (BJ human fibroblasts [3]): 1.29; Folding respect to untreated (reprogramming efficiency, AP+ colonies) (BJ human fibroblasts [4]): 1.04
COc1cc2c(NC3CCN(C(C)C)CC3)nc(N3CCC(F)(F)CC3)nc2cc1OCCCN1CCCC1 [UNC0642, 2-(4,4-difluoro-1-piperidyl)-N-(1-isopropyl-4-piperidyl)-6-methoxy-7-(3-pyrrolidin-1-ylpropoxy)quinazolin-4-amine] | – | – | – | – | – | – | IC50 (DNMT1 [5]): > 50 µM
